Reference: patent US20230303599A1, “PRODRUGS OF PHOSPHONAMIDE NUCLEOTIDE ANALOGUES AND THEIR PHARMACEUTICAL USE” (priority 2020, published 2023)
In brackets after ≈: the same amount, converted by molar mass.

Test: Kinetic solubility analysis
Type: physicochemical
Settings: 1× PBS, 24.2 °C, aqueous buffer, kinetic from dmso stock; pH 7.4 PBS, 1% DMSO, 24-hour incubation at ambient temperature
Procedure: Example 108: Kinetic Solubility Analysis
Buffer Preparation: 0.1 N HCl: Hydrochloric acid, 0.1 N standardized solution (MP Biomedicals part number 199569). 1×PBS, pH 7.4: Phosphate Buffered Saline (PBS) solution 10× (Fisher Bioreagent part number BP399-500) 50 mL was added to approximately 450 mL HPLC grade H2O. The volume of the solution was then adjusted to 500 mL for a total dilution factor of 1:10 and a final PBS concentration of 1×.
The final DMSO concentration was 1.0% (v/v) and maximum theoretical compound concentration is 100 μM (for compound stock concentration of 10 mM). The filter plate was sealed. Following 24-hour incubation at ambient temperature (24.2-27.5° C.), the samples were vacuum filtered and the filtrates were collected in a 96 well polypropylene plate for analysis. The collection plate was sealed for analysis. Filtrates were injected into the Antek 8060 chemiluminescent nitrogen detector for quantification. The results are reported in μM.
The filtrates were quantified with respect to this calibration curve. Each calculated solubility value was corrected for background nitrogen present in the DMSO and in the medium used to prepare the sample. All reported values for compounds containing adjacent nitrogen atoms in a ring structure were increased by approximately 25%.

Row | solubility kinetic at 24 h [µg/mL] | Structure (SMILES)
1 | 53 (≈ 88.7 µM) | C[C@H](Cn1cnc2c(N)ncnc21)OCP(=O)(NC(C)(C)C(=O)OCC(C)(C)C)NC(C)(C)C(=O)OCC(C)(C)C [Example 5]
2 | 68 (≈ 108 µM) | CCCCCCOC(=O)C(C)(C)NP(=O)(CO[C@H](C)Cn1cnc2c(N)ncnc21)NC(C)(C)C(=O)OCC(C)(C)OC (stereo partly drawn) [Example 79, Hexyl 2-((((((R)-1-(6-amino-9H-purin-9-yl)propan-2-yl)oxy)methyl)((1-(2-methoxy-2-methylpropoxy)-2-methyl-1-oxopropan-2-yl)amino)phosphoryl)amino)-2-methylpropanoate]
3 | 60 (≈ 97.8 µM) | CCCCCCOC(=O)C(C)(C)NP(=O)(CO[C@H](C)Cn1cnc2c(N)ncnc21)NC(C)(C)C(=O)OCC1(F)CC1 (stereo partly drawn) [Example 78, (1-Fluorocyclopropyl)methyl 2-((((((R)-1-(6-amino-9H-purin-9-yl)propan-2-yl)oxy)methyl)((1-(hexyloxy)-2-methyl-1-oxopropan-2-yl)amino)phosphoryl)amino)-2-methylpropanoate]
4 | 7 (≈ 10.7 µM) | CCC(CC)CCOC(=O)C(C)(C)NP(=O)(CO[C@H](C)Cn1cnc2c(N)ncnc21)NC(C)(C)C(=O)OCCC(CC)CC [Example 7, Bis(3-ethylpentyl) 2,2′-(((((1-(6-amino-9H-purin-9-yl)propan-2-yl)oxy)methyl)phosphoryl)bis(azanediyl))(R)-bis(2-methylpropanoate)]
5 | 54 (≈ 83.6 µM) | C[C@H](Cn1cnc2c(N)ncnc21)OCP(=O)(NC(C)(C)C(=O)OC1CC2(CCC2)C1)NC(C)(C)C(=O)OC1CC2(CCC2)C1 (stereo partly drawn) [Example 41, Di(spiro[3.3]heptan-2-yl) 2,2′-(((((1-(6-amino-9H-purin-9-yl)propan-2-yl)oxy)methyl)phosphoryl)bis(azanediyl))(R)-bis(2-methylpropanoate)]
6 | 72 (≈ 127 µM) | C[C@H](Cn1cnc2c(N)ncnc21)OCP(=O)(NC(C)(C)C(=O)OC1CCC1)NC(C)(C)C(=O)OC1CCC1 [Example 47, Dicyclobutyl 2,2′-(((((1-(6-amino-9H-purin-9-yl)propan-2-yl)oxy)methyl)phosphoryl)bis(azanediyl))(R)-bis(2-methylpropanoate)]
7 | 53 (≈ 97.9 µM) | CC(C)OC(=O)C(C)(C)NP(=O)(CO[C@H](C)Cn1cnc2c(N)ncnc21)NC(C)(C)C(=O)OC(C)C [Example 43, Diisopropyl 2,2′-(((((1-(6-amino-9H-purin-9-yl)propan-2-yl)oxy)methyl)phosphoryl)bis(azanediyl))(R)-bis(2-methylpropanoate)]
8 | 78 (≈ 111 µM) | C[C@H](Cn1cnc2c(N)ncnc21)OCP(=O)(NC(C)(C)C(=O)O[C@H]1C[C@H](C(F)(F)F)C1)NC(C)(C)C(=O)O[C@H]1C[C@H](C(F)(F)F)C1 [Example 26, Bis(trans-3-(trifluoromethyl)cyclobutyl) 2,2′-((((((R)-1-(6-amino-9H-purin-9-yl)propan-2-yl)oxy)methyl)phosphoryl)bis(azanediyl))bis(2-methylpropanoate)]
9 | 1 (≈ 1.47 µM) | CCCC(CCC)COC(=O)C(C)(C)NP(=O)(CO[C@H](C)Cn1cnc2c(N)ncnc21)NC(C)(C)C(=O)OCC(CCC)CCC [Example 69, Bis(2-propylpentyl) 2,2′-(((((1-(6-amino-9H-purin-9-yl)propan-2-yl)oxy)methyl)phosphoryl)bis(azanediyl))(R)-bis(2-methylpropanoate)]
10 | 49 (≈ 82 µM) | CC(C)CCOC(=O)C(C)(C)NP(=O)(CO[C@H](C)Cn1cnc2c(N)ncnc21)NC(C)(C)C(=O)OCCC(C)C [Example 6, Diisopentyl 2,2′-(((((1-(6-amino-9H-purin-9-yl)propan-2-yl)oxy)methyl)phosphoryl)bis(azanediyl))(R)-bis(2-methylpropanoate)]
11 | 26 (≈ 37.4 µM) | CCCCCCOC(=O)C(C)(C)NP(=O)(CO[C@H](C)Cn1cnc2c(NC(=O)CCC)ncnc21)NC(C)(C)C(=O)OCCCCCC [Example 29, Dihexyl 2,2′-(((((1-(6-butyramido-9H-purin-9-yl)propan-2-yl)oxy)methyl)phosphoryl)bis(azanediyl))(R)-bis(2-methylpropanoate)]
12 | 61 (≈ 100 µM) | CCCCCCOC(=O)C(C)(C)NP(=O)(CO[C@H](C)Cn1cnc2c(N)ncnc21)NC(C)(C)C(=O)OC(C)C1CC1 (stereo partly drawn) [Example 81, 1-Cyclopropylethyl 2-((((((R)-1-(6-amino-9H-purin-9-yl)propan-2-yl)oxy)methyl)((1-(hexyloxy)-2-methyl-1-oxopropan-2-yl)amino)phosphoryl)amino)-2-methylpropanoate]
13 | 57 (≈ 91.7 µM) | C[C@H](Cn1cnc2c(N)ncnc21)OCP(=O)(NC(C)(C)C(=O)OC1CCCCC1)NC(C)(C)C(=O)OC1CCCCC1 [Example 40, Dicyclohexyl 2,2′-(((((1-(6-amino-9H-purin-9-yl)propan-2-yl)oxy)methyl)phosphoryl)bis(azanediyl))(R)-bis(2-methylpropanoate)]
14 | 36 (≈ 52 µM) | CCCCCCOC(=O)C(C)(C)NP(=O)(CO[C@H](C)Cn1cnc2c(N)ncnc21)NC(C)(C)C(=O)O[C@H]1CC[C@H](C(F)(F)F)CC1 (stereo partly drawn) [Example 22, Hexyl 2-((((((R)-1-(6-amino-9H-purin-9-yl)propan-2-yl)oxy)methyl)((2-methyl-1-oxo-1-((trans-4-(trifluoromethyl)cyclohexyl)oxy)propan-2-yl)amino)phosphoryl)amino)-2-methylpropanoate]
15 | < 1 | CCCCCCOC(=O)[C@](C)(Cc1ccccc1)NP(=O)(CO[C@H](C)Cn1cnc2c(N)ncnc21)N[C@@](C)(Cc1ccccc1)C(=O)OCCCCCC [Example 11, Dihexyl 2,2′-((((((R)-1-(6-amino-9H-purin-9-yl)propan-2-yl)oxy)methyl)phosphoryl)bis(azanediyl))(2S,2'S)-bis(2-methyl-3-phenylpropanoate)]
16 | 6 (≈ 8.36 µM) | C[C@H](Cn1cnc2c(N)ncnc21)OCP(=O)(NC(C)(C)C(=O)O[C@H]1C[C@@H](c2ccccc2)C1)NC(C)(C)C(=O)O[C@H]1C[C@@H](c2ccccc2)C1 [Example 85, Bis((1s,3S)-3-phenylcyclobutyl) 2,2′-((((((R)-1-(6-amino-9H-purin-9-yl)propan-2-yl)oxy)methyl)phosphoryl)bis(azanediyl))bis(2-methylpropanoate)]
17 | 3 (≈ 4.59 µM) | CC(C)CCCCOC(=O)C(C)(C)NP(=O)(CO[C@H](C)Cn1cnc2c(N)ncnc21)NC(C)(C)C(=O)OCCCCC(C)C [Example 68, Bis(5-methylhexyl) 2,2′-(((((1-(6-amino-9H-purin-9-yl)propan-2-yl)oxy)methyl)phosphoryl)bis(azanediyl))(R)-bis(2-methylpropanoate)]
18 | 64 (≈ 103 µM) | C[C@H](Cn1cnc2c(N)ncnc21)OCP(=O)(NC(C)(C)C(=O)OCC1CCCC1)NC(C)(C)C(=O)OCC1CCCC1 [Example 45, Bis(cyclopentylmethyl) 2,2′-(((((1-(6-amino-9H-purin-9-yl)propan-2-yl)oxy)methyl)phosphoryl)bis(azanediyl))(R)-bis(2-methylpropanoate)]
19 | 49 (≈ 78.6 µM) | CCCCCCOC(=O)C(C)(C)NP(=O)(CO[C@H](C)Cn1cnc2c(N)ncnc21)NC1(C(=O)OCCCCCC)CC1 (stereo partly drawn) [Example 20, Hexyl 1-((((((R)-1-(6-amino-9H-purin-9-yl)propan-2-yl)oxy)methyl)((1-(hexyloxy)-2-methyl-1-oxopropan-2-yl)amino)phosphoryl)amino)cyclopropane-1-carboxylate]
20 | 55 (≈ 82.4 µM) | CCCCCCOC(=O)C(C)(C)NP(=O)(CO[C@H](C)Cn1cnc2c(NC(C)=O)ncnc21)NC(C)(C)C(=O)OCCCCCC [Example 28, Dihexyl 2,2′-(((((1-(6-acetamido-9H-purin-9-yl)propan-2-yl)oxy)methyl)phosphoryl)bis(azanediyl))(R)-bis(2-methylpropanoate)]
21 | 50 (≈ 79.9 µM) | C[C@H](Cn1cnc2c(N)ncnc21)OCP(=O)(NC(C)(C)C(=O)OCCC(C)(C)C)NC(C)(C)C(=O)OCCC(C)(C)C [Example 8, Bis(3,3-dimethylbutyl) 2,2′-(((((1-(6-amino-9H-purin-9-yl)propan-2-yl)oxy)methyl)phosphoryl)bis(azanediyl))(R)-bis(2-methylpropanoate)]
22 | 10 (≈ 13.6 µM) | CCCCCCOC(=O)C(C)(C)NP(=O)(CO[C@H](C)Cn1cnc2c(NCc3oc(=O)oc3C)ncnc21)NC(C)(C)C(=O)OCCCCCC [Example 82, Dihexyl 2,2′-(((((1-(6-(((5-methyl-2-oxo-1,3-dioxol-4-yl)methyl)amino)-9H-purin-9-yl)propan-2-yl)oxy)methyl)phosphoryl)bis(azanediyl))(R)-bis(2-methylpropanoate)]
23 | < 1 | CCCCCCOC(=O)C(C)(C)NP(=O)(CO[C@H](C)Cn1cnc2c(NC(=O)OCCCCC)ncnc21)NC(C)(C)C(=O)OCCCCCC [Example 32, Dihexyl 2,2′-(((((1-(6-(((pentyloxy)carbonyl)amino)-9H-purin-9-yl)propan-2-yl)oxy)methyl)phosphoryl)bis(azanediyl))(R)-bis(2-methylpropanoate)]

Row | Structure (SMILES) | solubility kinetic at 24 h [µg/mL]
24 | CCC(CC)COC(=O)C(C)(C)N[P@@](=O)(CO[C@H](C)Cn1cnc2c(N)ncnc21)NC1(C(=O)OCC(CC)CC)CC1 [Example 72, 2-Ethylbutyl 1-(((S)-((((R)-1-(6-amino-9H-purin-9-yl)propan-2-yl)oxy)methyl)((1-(2-ethylbutoxy)-2-methyl-1-oxopropan-2-yl)amino)phosphoryl)amino)cyclopropane-1-carboxylate] | 35 (≈ 56.1 µM)
